We go through three compounds from patent US3947456A, “Substituted 4-phenyl isoquinolines” (Hoffman-La Roche Inc., priority 1970, dated 1976).

Where two headings read alike, the source gives them in different places.

Data set [1] concerns rats. Kind of data set: Anti-depressant activity: antagonism of symptoms induced by 2-ethyl-2-hydroxy-3-isobutyl-9,10-dimethoxy-1,3,4,6,7,11b-hexahydro-2H-benzo (a) quinolizine hydrochloride (motility, sensitivity to stimulus, seeking behavior, suppression of ptosis). Particulars: 3 doses of 50 mg/kg p.o., benzoquinolizine 20 mg/kg s.c. 6 h after last dose, amitriptyline = 100 percent. Format: in vivo. The procedure:
The compounds of formula I above and their pharmaceutically acceptable salts are extremely effective and active as anti-depressant agents. Their useful anti-depressant activity is shown in warm-blooded animals utilizing standard test procedures. […] Six hours after the last administration the animals received 20 mg/kg of 2-ethyl-2-hydroxy-3-isobutyl-9,10-dimethoxy-1,3,4,6,7,11b-hexahydro-2H-benzo (a) quinolizine hydrochloride injected subcutaneously. The same dosage was administered to a group of 5-non-pretreated rats. The evaluation includes central and peripheral symptoms such as are characteristic for anti-depressants (See Annals of the New York Academy of Science, Vol. 96, page 279, 1962). Especially observed were the motility (climbing), sensitivity to stimulus, seeking behavior as well as the suppression of ptosis. These changes were expressed in numbers according to an evaluation scheme.
The percentage numbers stated relate to the value obtained with amitriptyline (amitriptyline = 100 percent).

A short description of data set [2]: Acute toxicity (LD50), 24 hour values. Particulars: mouse, in vivo, mice, 24 hour value. The procedure:
The low toxicity of the compounds of formula I is also illustrated by the acute toxicity (LD50) of the compounds set out in Table I. The figures set forth in Table I as to acute toxicity refer to toxicity tests performed in mice and are the 24 hour values.

With `CN1Cc2cc(O)ccc2C(c2ccc(Cl)c(Cl)c2)C1` (stereo not drawn) [4-(3,4-dichlorophenyl)-1,2,3,4-tetrahydro-2-methyl-7-isoquinolinol], the “Activity in % of the activity of amitriptyline” value in data set [1] is listed as “about 158%”. For the same compound, the LD50 at 24 h in data set [2] (iv, i.v., read-out: LD50 i.v.) fell in the range of 30 to 60 mg/kg; in data set [2] (po, p.o., read-out: LD50 p.o.), 500 to 1000 mg/kg; in data set [2] (sc, s.c., read-out: LD50 s.c.), 250 to 500 mg/kg.
On the same counts, the results for `COc1ccc2c(c1)CN(C)CC2c1ccc(Cl)c(Cl)c1` (stereo not drawn) [4-(3,4-dichlorophenyl)-1,2,3,4-tetrahydro-7-methoxy-2-methylisoquinoline] are “about 128%”, 125 to 250 mg/kg, 1000 to 2000 mg/kg and 500 to 1000 mg/kg.
On the same counts, the results for `CN1Cc2cc(O)ccc2C(c2ccc(Cl)cc2)C1` (stereo not drawn) [4-(4-chlorophenyl)-1,2,3,4-tetrahydro-2-methyl-7-isoquinolinol] are “about 114%”, 30 to 60 mg/kg, 1000 to 2000 mg/kg and 500 to 1000 mg/kg.
